According to patent US9499535B2, “Kinase inhibitors” (ORIGENIS GMBH, priority 2011, dated 2016):

Columns and labels:
[1] = molecular target: LRRK2 (Homo sapiens, UniProt Q5S007); test: LRRK2 assay (LanthaScreen Eu Kinase Binding Assay); details: 5 nM LRRK2, 10 nM tracer 236, RT 1 h; read-out: LRRK2 Activites: IC50
Summary of the method: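 Kinase binding was detected by europium anti-tag antibody FRET with a competing tracer, so inhibitor binding lowers the FRET signal. IC50 came from a variable-slope sigmoidal fit of emission ratio against inhibitor concentration.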

[2] = molecular target: MYLK (Homo sapiens, UniProt Q15746); test: MYLK assay (LanthaScreen Eu Kinase Binding Assay); details: 5 nM MYLK, 30 nM tracer 236, RT 1 h; read-out: MYLK Activites: IC50
Method: In the assay LanthaScreen™ Eu Kinase Binding Assay by Invitrogen Corporation (Carlsbad) the effect of invention of a compound on the phosphorylation is determined by measurement of fluorescence intensity emission ratio based on the binding and displacement of a proprietary, Alexa Fluor® 647-labeled, ATP-competitive kinase inhibitor scaffold (kinase tracer) to the kinase of interest as described above.
To the wells of an 384 well small volume plate (Greiner, Frickenhausen) are added (i) the compound under test in 5% DMSO/distilled water (5 μl), (ii) 5 μl of the kinase antibody mixture resulting in a final concentration 5 nM MYLK, 2 nM EU-Anti-GST antibody in 1× kinase buffer A. The reaction was started with addition of (iii) 5 μl resulting in a final concentration of 30 nM tracer 236. The assay plate was incubated at RT for 1 h and fluorescence intensitiy readings were collected using a TECAN M1000 at two wavelengthes of λex 340/λem 615 nm and λex 340/λem 665 nm with a delay time of 100 μs and an integration time of 200 μs after 60 minutes. The emission ratio was calculated by division of the acceptor/tracer emission ([…]) by the antibody/donor emission ([…]). The inhibitor concentration was plotted versus the emission ratio to determine the IC50 using XLFit 5.0 (IDBS, Guildford) to fit to a sigmoidal dose response curve with a variable slope.

[3] = molecular target: T1, SYK kinase (Homo sapiens, UniProt P43405); test: SYK assay (OMNIA Kinase Assay, Invitrogen); type: biochemical; details: apparent Ki calculated from the IC50 using the Cheng-Prusoff equation; 1 mM ATP, 10 μM Peptide Substrate; read-out: SYK Activities: Ki
T1 construct: purchased Invitrogen, Carlsbad
Summary of the method: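 Continuous SOX-fluorescence (Omnia) readout of Tyr 7 peptide (10 μM) phosphorylation with 1 mM ATP and 0.2 mM DTT at 30° C, started by SYK addition. Fluorescence (λex 360/λem 485 nm) was read every 30 s for 30 min. IC50 from velocity vs concentration; apparent Ki via Cheng-Prusoff.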

Chain of MYLK (Q15746 whole entry): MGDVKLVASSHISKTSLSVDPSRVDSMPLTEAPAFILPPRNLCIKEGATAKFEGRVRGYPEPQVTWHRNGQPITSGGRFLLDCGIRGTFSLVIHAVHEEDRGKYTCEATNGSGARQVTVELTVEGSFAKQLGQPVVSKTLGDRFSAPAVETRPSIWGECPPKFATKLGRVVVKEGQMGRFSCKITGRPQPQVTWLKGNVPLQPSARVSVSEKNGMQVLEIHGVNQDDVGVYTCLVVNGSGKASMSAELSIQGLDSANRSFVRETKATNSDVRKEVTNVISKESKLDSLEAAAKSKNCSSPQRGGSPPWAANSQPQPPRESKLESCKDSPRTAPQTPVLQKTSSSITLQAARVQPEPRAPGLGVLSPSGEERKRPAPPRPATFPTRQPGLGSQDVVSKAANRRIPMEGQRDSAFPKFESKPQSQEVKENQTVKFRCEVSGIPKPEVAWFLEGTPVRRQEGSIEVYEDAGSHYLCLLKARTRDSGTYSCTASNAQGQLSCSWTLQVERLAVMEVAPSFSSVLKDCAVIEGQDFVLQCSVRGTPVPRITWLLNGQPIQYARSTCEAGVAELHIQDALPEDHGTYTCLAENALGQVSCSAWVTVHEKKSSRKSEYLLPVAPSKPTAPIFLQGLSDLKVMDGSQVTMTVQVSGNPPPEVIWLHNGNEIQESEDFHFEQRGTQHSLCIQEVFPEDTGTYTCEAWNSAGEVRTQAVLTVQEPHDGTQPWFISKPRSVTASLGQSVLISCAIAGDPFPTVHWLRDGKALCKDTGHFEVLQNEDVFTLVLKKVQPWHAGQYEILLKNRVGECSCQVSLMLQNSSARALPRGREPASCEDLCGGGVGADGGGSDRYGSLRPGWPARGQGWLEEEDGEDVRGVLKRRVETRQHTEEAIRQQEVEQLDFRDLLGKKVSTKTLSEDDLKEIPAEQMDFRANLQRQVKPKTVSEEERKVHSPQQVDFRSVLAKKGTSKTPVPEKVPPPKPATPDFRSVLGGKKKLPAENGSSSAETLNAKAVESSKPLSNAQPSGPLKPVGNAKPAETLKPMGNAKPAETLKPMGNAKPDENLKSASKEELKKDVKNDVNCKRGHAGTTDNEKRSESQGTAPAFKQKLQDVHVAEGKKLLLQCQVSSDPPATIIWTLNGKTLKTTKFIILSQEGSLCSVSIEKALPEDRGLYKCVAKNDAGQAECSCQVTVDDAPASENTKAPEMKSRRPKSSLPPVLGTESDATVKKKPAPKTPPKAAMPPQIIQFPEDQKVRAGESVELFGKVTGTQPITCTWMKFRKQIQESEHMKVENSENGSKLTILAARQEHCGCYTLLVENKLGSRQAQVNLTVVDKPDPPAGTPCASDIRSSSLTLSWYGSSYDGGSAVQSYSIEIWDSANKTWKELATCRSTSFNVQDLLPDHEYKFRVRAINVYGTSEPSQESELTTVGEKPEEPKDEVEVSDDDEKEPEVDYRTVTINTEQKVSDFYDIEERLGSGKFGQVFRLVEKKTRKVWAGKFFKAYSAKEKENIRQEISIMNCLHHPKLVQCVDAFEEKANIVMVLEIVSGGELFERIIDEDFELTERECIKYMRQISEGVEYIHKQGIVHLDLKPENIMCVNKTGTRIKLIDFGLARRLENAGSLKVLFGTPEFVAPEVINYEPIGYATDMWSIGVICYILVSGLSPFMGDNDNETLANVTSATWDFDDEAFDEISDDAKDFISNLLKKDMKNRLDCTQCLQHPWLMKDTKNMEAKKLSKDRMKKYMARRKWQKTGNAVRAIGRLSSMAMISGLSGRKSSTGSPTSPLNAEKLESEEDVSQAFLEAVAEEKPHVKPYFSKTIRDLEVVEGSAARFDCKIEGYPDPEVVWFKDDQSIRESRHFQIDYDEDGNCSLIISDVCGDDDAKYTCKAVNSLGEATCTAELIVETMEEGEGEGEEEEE
Chain of LRRK2 (Q5S007 970-2527 limits assumed): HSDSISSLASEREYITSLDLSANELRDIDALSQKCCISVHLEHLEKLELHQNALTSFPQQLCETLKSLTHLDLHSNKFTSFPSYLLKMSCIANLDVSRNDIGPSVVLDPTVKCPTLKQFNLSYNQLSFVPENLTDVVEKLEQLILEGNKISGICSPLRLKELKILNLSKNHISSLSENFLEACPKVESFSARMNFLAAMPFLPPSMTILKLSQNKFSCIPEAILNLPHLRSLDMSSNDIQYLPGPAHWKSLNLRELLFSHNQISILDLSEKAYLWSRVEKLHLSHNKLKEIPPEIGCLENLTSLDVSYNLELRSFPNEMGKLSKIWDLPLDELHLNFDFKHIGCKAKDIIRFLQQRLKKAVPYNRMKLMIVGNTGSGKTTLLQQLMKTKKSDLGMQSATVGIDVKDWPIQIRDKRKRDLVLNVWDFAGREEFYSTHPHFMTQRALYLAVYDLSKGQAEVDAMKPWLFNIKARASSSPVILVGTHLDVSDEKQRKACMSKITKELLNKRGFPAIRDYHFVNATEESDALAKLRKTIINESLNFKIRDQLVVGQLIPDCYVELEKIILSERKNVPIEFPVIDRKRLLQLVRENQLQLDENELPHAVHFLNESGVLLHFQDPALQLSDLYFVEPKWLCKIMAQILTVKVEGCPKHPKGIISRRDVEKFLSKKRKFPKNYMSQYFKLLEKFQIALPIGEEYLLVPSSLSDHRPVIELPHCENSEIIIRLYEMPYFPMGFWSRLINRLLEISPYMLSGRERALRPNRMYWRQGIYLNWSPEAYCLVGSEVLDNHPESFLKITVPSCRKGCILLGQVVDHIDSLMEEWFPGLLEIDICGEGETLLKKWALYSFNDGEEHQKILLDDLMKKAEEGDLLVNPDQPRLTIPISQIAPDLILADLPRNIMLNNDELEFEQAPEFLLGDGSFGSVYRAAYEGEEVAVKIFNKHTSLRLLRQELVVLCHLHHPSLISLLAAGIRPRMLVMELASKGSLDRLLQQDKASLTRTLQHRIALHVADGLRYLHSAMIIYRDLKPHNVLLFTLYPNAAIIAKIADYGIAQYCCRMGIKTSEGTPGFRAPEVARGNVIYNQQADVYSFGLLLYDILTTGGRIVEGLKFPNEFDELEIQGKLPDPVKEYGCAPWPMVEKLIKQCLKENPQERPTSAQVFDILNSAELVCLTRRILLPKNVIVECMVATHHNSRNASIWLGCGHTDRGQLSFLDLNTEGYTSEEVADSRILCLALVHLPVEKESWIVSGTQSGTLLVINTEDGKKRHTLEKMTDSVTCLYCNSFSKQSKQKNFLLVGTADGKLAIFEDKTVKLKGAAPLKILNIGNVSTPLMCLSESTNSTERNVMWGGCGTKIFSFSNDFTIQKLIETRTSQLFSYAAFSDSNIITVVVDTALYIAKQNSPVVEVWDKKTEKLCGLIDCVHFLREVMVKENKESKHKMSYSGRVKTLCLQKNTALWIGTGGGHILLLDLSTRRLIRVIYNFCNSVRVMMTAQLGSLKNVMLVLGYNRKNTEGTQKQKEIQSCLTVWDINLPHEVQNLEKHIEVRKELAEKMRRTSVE

COc1ccc2nc(Nc3ccc4[nH]c(=O)[nH]c4c3)c3n[nH]cc3c2c1 [Example #71, 5-(8-Methoxy-2H-pyrazolo[3,4-c]quinolin-4-ylamino)-1,3-dihydro-benzoimidazol-2-one]
IC50 [1]: 100 to 1000 nM | IC50 [2]: < 5000 nM | Ki [3]: 10 to 100 nM

COc1ccc2nc(Nc3ccc(CN)cc3)c3[nH]ncc3c2c1 [Example #73, (4-Aminomethyl-phenyl)-(8-methoxy-3H-pyrazolo[3,4-c]quinolin-4-yl)-amine]
IC50 [1]: 100 to 1000 nM | IC50 [2]: < 5000 nM | Ki [3]: 10 to 100 nM

CN(C)c1ccc(Nc2nc3ccc(Br)cc3c3c[nH]nc23)cc1 [Example #84, N-(8-Bromo-2H-pyrazolo[3,4-c]quinolin-4-yl)-N′,N′-dimethyl-benzene-1,4-diamine]
IC50 [1]: 100 to 1000 nM | IC50 [2]: < 5000 nM | Ki [3]: 10 to 100 nM

COc1ccc2nc(Nc3ccc(C4=NCCN4)cc3)c3n[nH]cc3c2c1 [Example #86, [4-(4,5-Dihydro-1H-imidazol-2-yl)-phenyl]-(8-methoxy-2H-pyrazolo[3,4-c]quinolin-4-yl)-amine]
IC50 [1]: 100 to 1000 nM | IC50 [2]: < 5000 nM | Ki [3]: 10 to 100 nM

COc1ccc2nc(Nc3ccc(N4CCOCC4=O)cc3)c3n[nH]cc3c2c1 [Example #87, 4-[4-(8-Methoxy-2H-pyrazolo[3,4-c]quinolin-4-ylamino)-phenyl]-morpholin-3-one]
IC50 [1]: 10 to 100 nM | IC50 [2]: < 5000 nM | Ki [3]: 100 to 1000 nM

COc1ccc2nc(Nc3ccc(-c4nnn[nH]4)cc3)c3[nH]ncc3c2c1 [Example #98, (8-Methoxy-3H-pyrazolo[3,4-c]quinolin-4-yl)-[4-(1H-tetrazol-5-yl)-phenyl]-amine]
IC50 [1]: 100 to 1000 nM | IC50 [2]: < 5000 nM | Ki [3]: 100 to 1000 nM

COc1ccc2nc(Nc3ccc(C4CCN(C)CC4)cc3)c3n[nH]cc3c2c1 [Example #102, (8-Methoxy-2H-pyrazolo[3,4-c]quinolin-4-yl)-[4-(1-methyl-piperidin-4-yl)-phenyl]-amine]
IC50 [1]: 100 to 1000 nM | IC50 [2]: < 5000 nM | Ki [3]: 10 to 100 nM

COc1ccc2nc(Nc3ccc(CC(N)=O)cc3)c3[nH]ncc3c2c1 [Example #112, 2-[4-(8-Methoxy-3H-pyrazolo[3,4-c]quinolin-4-ylamino)-phenyl]-acetamide]
IC50 [1]: 100 to 1000 nM | IC50 [2]: < 5000 nM | Ki [3]: 10 to 100 nM

COc1ccc2nc(Nc3ccc(OC)c(O)c3)c3n[nH]cc3c2c1 [Example #118, 2-Methoxy-5-(8-methoxy-2H-pyrazolo[3,4-c]quinolin-4-ylamino)-phenol]
IC50 [1]: 10 to 100 nM | IC50 [2]: < 5000 nM | Ki [3]: < 10 nM

COc1ccc2nc(Nc3cccc(NC(C)=O)c3)c3[nH]ncc3c2c1 [Example #120, N-[3-(8-Methoxy-3H-pyrazolo[3,4-c]quinolin-4-ylamino)-phenyl]-acetamide]
IC50 [1]: 10 to 100 nM | IC50 [2]: < 5000 nM | Ki [3]: 10 to 100 nM

COc1ccc2nc(Nc3cn[nH]c3)c3[nH]ncc3c2c1 [Example #121, (8-Methoxy-3H-pyrazolo[3,4-c]quinolin-4-yl)-(1H-pyrazol-4-yl)-amine]
IC50 [1]: 100 to 1000 nM | IC50 [2]: < 5000 nM | Ki [3]: 10 to 100 nM

COc1ccc(Nc2nc3cc(OC)c(OC)cc3c3c[nH]nc23)cc1OC [Example #122, (3,4-Dimethoxy-phenyl)-(7,8-dimethoxy-2H-pyrazolo[3,4-c]quinolin-4-yl)-amine]
IC50 [1]: 100 to 1000 nM | IC50 [2]: < 5000 nM | Ki [3]: 10 to 100 nM

COc1ccc2nc(Nc3ccc4c(c3)ncn4C)c3n[nH]cc3c2c1 [Example #126, (8-Methoxy-2H-pyrazolo[3,4-c]quinolin-4-yl)-(1-methyl-1H-benzoimidazol-5-yl)-amine]
IC50 [1]: 100 to 1000 nM | IC50 [2]: < 5000 nM | Ki [3]: 100 to 1000 nM

COc1ccc2nc(Nc3ccc(NC(C)=O)cc3)c3n[nH]cc3c2c1 [Example #128, N-[4-(8-Methoxy-2H-pyrazolo[3,4-c]quinolin-4-ylamino)-phenyl]-acetamide]
IC50 [1]: 100 to 1000 nM | IC50 [2]: < 5000 nM | Ki [3]: 10 to 100 nM

COc1ccc2nc(Nc3cccc(S(N)(=O)=O)c3)c3n[nH]cc3c2c1 [Example #131, 3-(8-Methoxy-2H-pyrazolo[3,4-c]quinolin-4-ylamino)-benzenesulfonamide]
IC50 [1]: 10 to 100 nM | IC50 [2]: < 5000 nM | Ki [3]: 100 to 1000 nM

COc1ccc2nc(Nc3ccc(S(N)(=O)=O)cc3)c3n[nH]cc3c2c1 [Example #132, 4-(8-Methoxy-2H-pyrazolo[3,4-c]quinolin-4-ylamino)-benzenesulfonamide]
IC50 [1]: 10 to 100 nM | IC50 [2]: < 5000 nM | Ki [3]: 10 to 100 nM

COc1cc2nc(Nc3ccc(N4CCOCC4)cc3)c3n[nH]cc3c2cc1OC [Example #133, (7,8-Dimethoxy-2H-pyrazolo[3,4-c]quinolin-4-yl)-(4-morpholin-4-yl-phenyl)-amine]
IC50 [1]: 100 to 1000 nM | IC50 [2]: < 5000 nM | Ki [3]: 10 to 100 nM

COc1cc2nc(Nc3ccc(N4CCN(C)CC4)cc3)c3n[nH]cc3c2cc1OC [Example #134, (7,8-Dimethoxy-2H-pyrazolo[3,4-c]quinolin-4-yl)-[4-(4-methyl-piperazin-1-yl)-phenyl]-amine]
IC50 [1]: 100 to 1000 nM | IC50 [2]: < 5000 nM | Ki [3]: 10 to 100 nM

COc1cc2nc(Nc3ccc4cn[nH]c4c3)c3n[nH]cc3c2cc1OC [Example #136, (7,8-Dimethoxy-2H-pyrazolo[3,4-c]quinolin-4-yl)-(1H-indazol-6-yl)-amine]
IC50 [1]: 100 to 1000 nM | IC50 [2]: < 5000 nM | Ki [3]: 10 to 100 nM

COc1ccc2nc(Nc3ccc(OC)c(NC(C)=O)c3)c3n[nH]cc3c2c1 [Example #142, N-[2-Methoxy-5-(8-methoxy-2H-pyrazolo[3,4-c]quinolin-4-ylamino)-phenyl]-acetamide]
IC50 [1]: 100 to 1000 nM | IC50 [2]: < 5000 nM | Ki [3]: 10 to 100 nM

COc1ccc2nc(Nc3ccc4c(c3)COC4)c3n[nH]cc3c2c1 [Example #147, (1,3-Dihydro-isobenzofuran-5-yl)-(8-methoxy-2H-pyrazolo[3,4-c]quinolin-4-yl)-amine]
IC50 [1]: 10 to 100 nM | IC50 [2]: < 5000 nM | Ki [3]: 10 to 100 nM

COc1ccc2nc(Nc3ccc4ncn(C)c4c3)c3n[nH]cc3c2c1 [Example #148, (8-Methoxy-2H-pyrazolo[3,4-c]quinolin-4-yl)-(3-methyl-3H-benzoimidazol-5-yl)-amine]
IC50 [1]: 100 to 1000 nM | IC50 [2]: < 5000 nM | Ki [3]: 100 to 1000 nM

COc1cc2nc(Nc3cc(C4CC4)[nH]n3)c3n[nH]cc3c2cc1OC [Example #150, (5-Cyclopropyl-1H-pyrazol-3-yl)-(7,8-dimethoxy-2H-pyrazolo[3,4-c]quinolin-4-yl)-amine]
IC50 [1]: 10 to 100 nM | IC50 [2]: < 5000 nM | Ki [3]: 10 to 100 nM

COc1ccc(Nc2nc3cc(OC)c(OC)cc3c3c[nH]nc23)cc1O [Example #152, 5-(7,8-Dimethoxy-2H-pyrazolo[3,4-c]quinolin-4-ylamino)-2-methoxy-phenol]
IC50 [1]: 100 to 1000 nM | IC50 [2]: < 5000 nM | Ki [3]: 10 to 100 nM

COc1ccc2nc(Nc3ccc4c(c3)nc3n4CCN(C)C3)c3n[nH]cc3c2c1 [Example #160, (8-Methoxy-2H-pyrazolo[3,4-c]quinolin-4-yl)-(2-methyl-1,2,3,4-tetrahydro-benzo[4,5]imidazo[1,2-a]pyrazin-8-yl)-amine]
IC50 [1]: 100 to 1000 nM | IC50 [2]: < 5000 nM | Ki [3]: 10 to 100 nM

COc1ccc2nc(Nc3ccc(O)c(O)c3)c3n[nH]cc3c2c1 [Example #162, 4-(8-Methoxy-2H-pyrazolo[3,4-c]quinolin-4-ylamino)-benzene-1,2-diol]
IC50 [1]: 100 to 1000 nM | IC50 [2]: < 5000 nM | Ki [3]: 10 to 100 nM

COc1ccc2nc(Nc3ccc(OC4CCN(C)CC4)cc3)c3n[nH]cc3c2c1 [Example #163, (8-Methoxy-2H-pyrazolo[3,4-c]quinolin-4-yl)-[4-(1-methyl-piperidin-4-yloxy)-phenyl]-amine]
IC50 [1]: 100 to 1000 nM | IC50 [2]: < 5000 nM | Ki [3]: 10 to 100 nM

COc1ccc2nc(Nc3ccc(N4CCN(C(C)=O)CC4)cc3)c3n[nH]cc3c2c1 [Example #164, 1-{4-[4-(8-Methoxy-2H-pyrazolo[3,4-c]quinolin-4-ylamino)-phenyl]-piperazin-1-yl}-ethanone]
IC50 [1]: 10 to 100 nM | IC50 [2]: < 5000 nM | Ki [3]: < 10 nM

COc1ccc2nc(Nc3ccc(N4CCN(C)CC4)nc3)c3n[nH]cc3c2c1 [Example #165, (8-Methoxy-2H-pyrazolo[3,4-c]quinolin-4-yl)-[6-(4-methyl-piperazin-1-yl)-pyridin-3-yl]-amine]
IC50 [1]: 10 to 100 nM | IC50 [2]: < 5000 nM | Ki [3]: 10 to 100 nM
